Literature values, collected in patent US20040151761A1, “Methods and compositions utilizing astaxanthin” (priority 2003, published 2004).

Assays:
[1] = system: human neuroblastoma cell; conditions: cited from earlier work
[2] = cited from earlier work
[3] = system: IgG; conditions: dogs, 20 mg; cited from earlier work
[4] = system: mouse splenocytes; conditions: cultured cell assay (Jyonouchi et al.); cited from earlier work
[5] = system: chemical-induced carcinogenesis; conditions: mice; cited from earlier work
[6] = system: tumor necrosis factor (TNF); conditions: hamsters; cited from earlier work
[7] = system: lymphocyte; conditions: rats; cited from earlier work

| SMILES | human neuroblastoma cell proliferation [1] | conversion of beta-carotene to vitamin A ([2]; cats (Schweigert et al. 2002)) | absorption of beta-carotene ([2]; domestic cats (Chew et al. 2000)) | plasma IgG concentration versus un-supplemented animals [3] | in vitro antibody response of mouse splenocytes to T-dependent antigens [4] | chemical-induced carcinogenesis [5] | production of tumor necrosis factor (TNF) by macrophages [6] | lymphocyte proliferation [7] |
| --- | --- | --- | --- | --- | --- | --- | --- | --- |
| CC1=C(/C=C/C(C)=C/C=C/C(C)=C/C=C/C=C(C)/C=C/C=C(C)/C=C/C2=C(C)CCCC2(C)C)C(C)(C)CCC1 [beta-carotene] | inhibit human neuroblastoma cell proliferation | not accompanied by conversion of beta-carotene to vitamin A | readily absorb beta-carotene | higher concentrations of plasma IgG than un-supplemented animals | increase in vitro antibody response | – | – | – |
| CC1=C(/C=C/C(C)=C/C=C/C(C)=C/C=C/C=C(C)/C=C/C=C(C)/C=C/C2=C(C)C(=O)CCC2(C)C)C(C)(C)CCC1=O [canthaxanthin] | – | – | – | – | – | prevent chemical-induced carcinogenesis | enhances the production of tumor necrosis factor (TNF) | increases lymphocyte proliferation |
| CC1=C[C@H](O)CC(C)(C)[C@H]1/C=C/C(C)=C/C=C/C(C)=C/C=C/C=C(C)/C=C/C=C(C)/C=C/C1=C(C)C[C@@H](O)CC1(C)C [lutein] | – | – | – | higher concentrations of plasma IgG than un-supplemented animals | – | – | – | – |
